{"source": "patent US5547944A", "about": "“Dermatan sulphate possessing a thrombolytic activity, and pharmaceutical forms containing it” (Opocrin S.p.A., priority 1991, dated 1996)", "key": {"[1]": {"test_system": "thrombus formations in the occluded vena cava", "assay": "thrombolytic activity on already formed vena cava thrombus versus urokinase", "assay_type": "in vivo, rat", "description": "DS administered intravenously is active at a dose of 0.1 mg/kg in inhibiting 90% of a Jugular vein thrombosis induced by Protein Complex Concentrate (PCC) in the rabbit, and in inhibiting 70% of a thrombosis induced by a PCC/RVV (Russel Viper Venom) combination; (Fareed J. et al.; Sem. Thromb. Haemost. 11, 155-157 (1985)).\nWith dermatan sulphate fractions similar to the one coded 1.25M as obtained in Example 1b) comparative studies were made on thrombolytic activity versus urokinase. Four groups of 10 rats each were anaesthetised with 1 g/kg of urethane administered in endoperitoneal physiological solution by endoperitoneal route. The vena cava of the rats was subjected to ligature in line with the Reyers test (Thromb. Res. 18, 699, 1980), and two hours after the ligature 5 mg/kg/i.v. of DS and 5000 U/kg of Ukidan (Urokinase-Serono) were administered. After eight hours the thrombus formations in the occluded vein were removed."}, "bleeding time": {"test_system": "bleeding time", "conditions": "in vivo"}}}
{"substance": "Urokinase", "values": [{"measurement": "reduction in thrombus weight", "setting": "[1]; bolus then 6 hours infusion: DS 2.5 mg/kg + 1.25 mg/kg/hour, urokinase 2500 U/kg + 1250 U/kg/hour, relative to untreated controls", "value": 70.2, "unit": "%"}, {"measurement": "mean thrombus weight", "setting": "[1]; treated two hours after ligature, 5 mg/kg i.v. DS or 5000 U/kg Ukidan, thrombus removed eight hours after ligature", "value": 2.2, "unit": "mg"}]}
{"substance": "dermatan sulphate [DS]", "values": [{"measurement": "effect on bleeding time", "setting": "bleeding time", "value": "very little effect"}]}
